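Growth conditions: 96-well plates. Treatment: test compound, 48 hours, 5 concentrations. Analysis: linear interpolation between bracketing concentrations; unreached endpoints set to highest concentration. At the GI50, growth is halved. TGI marks complete inhibition of growth.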 Where a SMILES comes first, the peptide text is derived from it. [ ]: non-standard residue; d: D form. ξ: configuration not given here. Pentanoyl(2-O,4-OH,5-Cl) = O=C(O)C(O)CC(O)CCl; Ile(3ξ) = CCC(C)[C@H](N)C(=O)O; NMeV = CN[C@H](C(=O)O)C(C)C; NMeA = CN[C@@H](C)C(=O)O; βAla = NCCC(=O)O
Tests used:
Assay in all cases: NCI anticancer screen, dose series, 48 h
M14 melanoma = system: M14 melanoma
A498 renal = system: A498 renal
SF-295 CNS = system: SF-295 CNS
SNB-75 CNS = system: SNB-75 CNS
NCI-H522 lung = system: NCI-H522 lung
ACHN renal = system: ACHN renal
SW-620 colon = system: SW-620 colon
RXF 393 renal = system: RXF 393 renal
MDA-MB-435 = system: MDA-MB-435
CAKI-1 renal = system: CAKI-1 renal

Row | SMILES | GI50 (M14 melanoma) | TGI (M14 melanoma) | GI50 (A498 renal) | TGI (A498 renal) | GI50 (SF-295 CNS) | TGI (SF-295 CNS) | GI50 (SNB-75 CNS) | TGI (SNB-75 CNS) | GI50 (NCI-H522 lung) | TGI (NCI-H522 lung) | GI50 (ACHN renal) | TGI (ACHN renal) | GI50 (SW-620 colon) | TGI (SW-620 colon) | GI50 (RXF 393 renal) | TGI (RXF 393 renal) | GI50 (MDA-MB-435) | TGI (MDA-MB-435) | GI50 (CAKI-1 renal) | TGI (CAKI-1 renal)
1 | CCCN1CCC(Oc2cc(Nc3nc(Nc4cccc(F)c4C(N)=O)c4cc[nH]c4n3)c(OC)cc2Cl)CC1 | 0.859 µM | 2.88 µM | 2.95 µM | 6.47 µM | 3.81 µM | 8.53 µM | 3.22 µM | 7.79 µM | 3.98 µM | 7.9 µM | 4.01 µM | 7.99 µM | 0.785 µM | 3.57 µM | 2.28 µM | 6.03 µM | 1.35 µM | 5.32 µM | 3.58 µM | 7.64 µM
2 | N#Cc1nc2cc(Cl)c(Cl)cc2nc1-c1ccc(Cl)cc1 | > 85.3 µM | > 100 µM | 21.5 µM | 60.7 µM | 19.6 µM | 43.1 µM | 19.9 µM | 40.2 µM | 51.5 µM | > 100 µM | 20 µM | 47.6 µM | > 100 µM | > 100 µM | 11.2 µM | > 42.6 µM | > 83.4 µM | > 100 µM | 34 µM | > 66.8 µM
3 | COC1C(OC(=O)/C=C/C=C/C=C/C=C/C(=O)O)CCC2(CO2)C1C1(C)OC1CC=C(C)C (stereo not given) | – | 69.8 µM | – | > 100 µM | 0.193 µM | > 96.8 µM | 0.287 µM | > 86.4 µM | 0.137 µM | – | 0.373 µM | 49 µM | 0.272 µM | > 100 µM | 0.265 µM | – | 0.105 µM | – | 0.414 µM | > 100 µM
4 | CCN(CC)CCN1C(=O)C2C3C(C)=CC(OC(C)=O)(CC3C)C2C1=O (stereo not given) | > 100 µM | > 100 µM | > 100 µM | > 100 µM | > 100 µM | > 100 µM | > 100 µM | > 100 µM | > 100 µM | > 100 µM | > 100 µM | > 100 µM | > 100 µM | > 100 µM | > 100 µM | > 100 µM | > 100 µM | > 100 µM | > 100 µM | > 100 µM
5 | CC(C)(Sc1cc(C(C)(C)C)c(O)c(C(C)(C)C)c1)Sc1cc(C(C)(C)C)c(O)c(C(C)(C)C)c1 | – | > 100 µM | – | > 100 µM | – | > 100 µM | – | > 100 µM | – | > 100 µM | – | > 100 µM | – | > 100 µM | – | > 100 µM | – | > 100 µM | – | > 100 µM
6 | O=C(c1ccccc1)c1nc2ccc(Cl)cc2cc1C(Br)Br | – | 5.65 µM | – | 9.45 µM | – | 0.939 µM | – | 1.41 µM | – | 3.68 µM | – | 0.662 µM | – | 0.905 µM | – | 0.361 µM | – | 1.14 µM | – | 1.75 µM
7 | CCC(C)[C@@H]1NC(=O)[C@@H]2CCCN2C(=O)C(CC(O)CCl)OC(=O)CCNC(=O)[C@H](C)N(C)C(=O)[C@H](C(C)C)N(C)C1=O (stereo not given in full) (cyclo([Ile(3ξ)][NMeV][NMeA][βAla][Pentanoyl(2-O,4-OH,5-Cl)]P)) | – | 3.09 µM | – | > 93.5 µM | – | 70.4 µM | – | > 100 µM | – | > 100 µM | – | > 100 µM | – | > 100 µM | – | > 100 µM | – | > 100 µM | – | > 100 µM
8 | C[C@]12CC[C@H]3[C@@H](CCC4=CC(=O)CC[C@@]43C)[C@]1(O)CC[C@]2(O)C(=O)CO | – | > 100 µM | – | > 100 µM | – | > 100 µM | – | > 100 µM | – | > 100 µM | – | > 100 µM | – | > 100 µM | – | > 100 µM | – | > 100 µM | – | > 100 µM
